Measured values reported in patent publication US20160251403A1, “PEPTIDE COMBINATIONS AND USES THEREOF IN TREATING DUST MITE ALLERGY” (ALK-ABELLO A/S, priority 2013, published 2016).
Substitutions are numbered along the chain they refer to. No end group written: not given here.

Columns and labels:
DPA10202-DPB10501 = target: T1, DPA10202-DPB10501 (Homo sapiens, UniProt P04440+P20036, A42M/A65V/A84E/F191V/F64L/G113D/G114E/K142R/L158P/M116V/M62Q/P115A/Q81R/R125K/T114A/T199I/T259P/V234M); assay: Competitive MHC class II binding assay, DPA10202-DPB10501; conditions: positive binding at cutoff 1000 nM; read-out: HLA-DPA10202-DPB10501
T1 sequence (P04440 30-258 A65V/A84E/F64L/G113D/G114E/M116V/P115A/R125K/T199I/V234M): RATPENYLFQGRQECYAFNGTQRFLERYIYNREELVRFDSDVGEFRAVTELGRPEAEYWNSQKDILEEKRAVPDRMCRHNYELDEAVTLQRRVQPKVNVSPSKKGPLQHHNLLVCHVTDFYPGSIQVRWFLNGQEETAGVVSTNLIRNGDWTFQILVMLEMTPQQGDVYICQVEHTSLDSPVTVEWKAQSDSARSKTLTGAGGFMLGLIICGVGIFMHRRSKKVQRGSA
T1 sequence (P20036 29-260 A42M/F191V/K142R/L158P/M62Q/Q81R/T114A/T259P): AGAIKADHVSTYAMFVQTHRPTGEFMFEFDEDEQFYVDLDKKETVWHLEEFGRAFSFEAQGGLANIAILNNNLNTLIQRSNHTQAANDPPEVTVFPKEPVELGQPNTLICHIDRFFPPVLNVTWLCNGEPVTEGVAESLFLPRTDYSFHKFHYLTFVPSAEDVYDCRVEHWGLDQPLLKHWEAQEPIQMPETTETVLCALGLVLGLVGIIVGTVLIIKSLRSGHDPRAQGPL

DRB1_0101 = DRB1_0101 (Homo sapiens, UniProt P01903+P01911, A100R/D57E/F55L/F60I/F76Y/I96L/L162R/M171V/P40L/Q125E/R42F/V115G/Y59C); assay: Competitive MHC class II binding assay, DRB1_0101;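 further: competition against a radiolabeled probe peptide (0.1–1 nM) for purified HLA class II protein over 2–4 days, bound counts read after antibody capture, six competitor levels across 100,000-fold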
DRB1_0802 = DRB1_0802 (Homo sapiens, UniProt P01903+P01911, A100R/A103L/A169T/F76Y/H45Y/I96F/K41T/L162R/M171V/P40S/Q125H/Q178H/Q39Y/Q99D/R218S/R42G/S66Y/V115G/W38E); assay: Competitive MHC class II binding assay, DRB1_0802
DRB1_0901 = DRB1_0901 (Homo sapiens, UniProt P01903+P01911, A100R/A103E/D57H/D86V/F55Y/F60I/F76Y/I96F/K127E/L162R/M171V/P40D/Q125H/Q99R/R33Q/R42F/S133A/S66N/T210M/V115G/W38K/Y107V/Y59G/Y89S); assay: Competitive MHC class II binding assay, DRB1_0901;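 further: displacement of a radiolabeled probe peptide from purified HLA class II protein, bound counts read after two to four days incubation, six concentrations spanning 100,000-fold, unlabeled probe as reference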
DRB5_0101 = DRB5_0101 (Homo sapiens, UniProt P01903+Q30154); assay: Competitive MHC class II binding assay, DRB5_0101
DQA10501-DQB10301 = DQA10501-DQB10301 (Homo sapiens, UniProt P01909+P01920); assay: Competitive MHC class II binding assay, DQA10501-DQB10301
DQA10301-DQB10302 = DQA10301-DQB10302 (Homo sapiens, UniProt P01909+P01920, A209T/A45G/C70Q/D89A/DUP78-78/E183D/E77G/F237L/G63E/H199R/I129T/K197E/L178F/L74F/L98V/Q57E/Q76R/S185I/S97I/T217I/T49S/V73L/Y58L); assay: Competitive MHC class II binding assay, DQA10301-DQB10302
DRB1_0701 = DRB1_0701 (Homo sapiens, UniProt P01903+P01911, A100R/A102G/A103Q/D57E/D86V/E43K/F76Y/K127E/L162R/M171V/P40G/Q125H/Q99D/R33Q/R42Y/R54Q/S133A/S66F/T210M/V115G/Y107V/Y59L/Y89S); assay: Competitive MHC class II binding assay, DRB1_0701;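 further: displacement of a radiolabeled reference peptide from purified HLA class II protein, with complex-bound radioactivity counted after 2–4 days of incubation and six concentrations spanning a 100,000-fold range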
DRB1_1302 = DRB1_1302 (Homo sapiens, UniProt P01903+P01911, A100E/A169T/K41T/L162R/M171V/P40S/Q125H/Q178H/Q39Y/Q99D/R42S/S66N/T262R/V115G/W38E/Y61H); assay: Competitive MHC class II binding assay, DRB1_1302;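 further: purified HLA class II protein incubated two to four days with a radiolabeled reference binder and test peptide at six concentrations over a 100,000-fold range, complex-bound radioactivity counted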
DRB1_1501 = DRB1_1501 (Homo sapiens, UniProt P01903+P01911); assay: Competitive MHC class II binding assay, DRB1_1501
DRB3_0202 = DRB3_0202 (Homo sapiens, UniProt P01903+P79483, A212P/D57E/F66Y/L67A/R103Q/R218S/R40L/S89Y/T80R/V86D/Y55F/Y59H); assay: Competitive MHC class II binding assay, DRB3_0202
DPA10103-DPB10402 = target: T2, DPA10103-DPB10402 (Homo sapiens, UniProt P04440+P20036, A65V/A84D/A85E/L207M); assay: Competitive MHC class II binding assay, DPA10103-DPB10402
T2 sequence (P20036 29-260): T1 sequence (P20036 29-260 A42M/F191V/K142R/L158P/M62Q/Q81R/T114A/T259P) with M14A, Q34M, R53Q, A86T, R114K, P130L, V163F, P231T
T2 sequence (P04440 30-258 A65V/A84D/A85E): T1 sequence (P04440 30-258 A65V/A84E/F64L/G113D/G114E/M116V/P115A/R125K/T199I/V234M) with L35F, E55D, A56E, D84G, E85G, A86P, V87M, K96R, I170T, M205V

[1] = Solubility of peptides in aqueous solutions at different pH (visual inspection, OD, HPLC); type: physicochemical; conditions: pH 7, visual inspection
From the text: This example describes modifications of parent peptides to improve the aqueous solubility, in particular to increase the solubility in an aqueous solution having pH in a physiologically acceptable range, e.g. from 6 to 8. Solubility is closely related to the ratio between hydrophilic and hydrophobic amino acid residues and the net charge state of the peptide. Peptides have zero net charge at pH=pI, and would be expected to show the lowest solubility at this pH. […] The solubility of these peptides was increased at pH values outside the physiological range (data not shown).
Peptides were tested for their ability to dissolve in aqueous solutions at different pH values. In short, each of the peptides were dissolved in water (pH about 5-6), hydrochloride solution at pH 2 (10 mM HCl), acetate buffer with pH 5 (20 mM acetate and 140 mM sodium chloride), phosphate buffer with pH 7 (20 mM phosphate and 140 mM sodium chloride) or bistrispropate buffer with pH 9 (20 mM bitrispropane and 140 mM sodium chloride, respectively, to produce a final molar concentration of the peptide of about 0.25 mM or 1 mM. Optionally, about 20% DMSO may be part of the solution. For comparison reasons, peptides were also dissolved in acetonitrile or DMSO. The solutions were inspected visually before and after centrifugation for turbidity, presence of particles/aggregates. In addition, presence of turbidity/particles/aggregates were detected by optical density (OD), but might also be detected by size-exclusion chromatography. Sub-visual particles may also be detected by dynamic light scattering (DLS) analysis. The solubility and stability of each peptide were also investigated using HPLC, e.g. RP-HPLC. For example, each of the solutions were injected onto the HPLC and the peak height or peak area of each of the peptides were compared to the corresponding peptide of a chromatogram of peptides dissolved in acetonitrile or DMSO—as peptides were assumed to be fully dissolved and stable in these solvents.

DRB1_0301 = DRB1_0301 (Homo sapiens, UniProt P01903+P01911, A100K/A102G/A103R/A169T/F55Y/I96L/K41T/L162R/M171V/P40S/Q125H/Q178H/Q39Y/R42S/S66N/T106N/T262R/W38E/Y61H); assay: Competitive MHC class II binding assay, DRB1_0301
DRB1_0405 = DRB1_0405 (Homo sapiens, UniProt P01903+P01911, A100R/A169T/D86S/F76Y/I96L/K127E/L162R/M171V/N62H/P40V/Q125Y/R42H/S133A/S149N/S66Y/V115G/V209L/W38E); assay: Competitive MHC class II binding assay, DRB1_0405
DRB1_1201 = DRB1_1201 (Homo sapiens, UniProt P01903+P01911, A100R/A169T/D57E/D86V/F55L/H45Y/K41T/L162R/M171V/P40S/Q125H/Q178H/Q39Y/Q99D/R42G/S66L/T262R/V114A/V67L/W38E/Y59H/Y61H/Y89S); assay: Competitive MHC class II binding assay, DRB1_1201
DRB3_0101 = DRB3_0101 (Homo sapiens, UniProt P01903+P79483); assay: Competitive MHC class II binding assay, DRB3_0101
DQA10501-DQB10201 = DQA10501-DQB10201 (Homo sapiens, UniProt P01909+P01920, A45G/A70V/D89A/E106A/E77G/E98D/H199R/L107V/N214S/P84L/P87L/T103K/T109R/T172A/T60S/V78E/V99I/Y58L/Y62S/Y69I/Y79F); assay: Competitive MHC class II binding assay, DQA10501-DQB10201
DQA10401-DQB10402 = assay: Competitive MHC class II binding assay, DQA10401-DQB10402
DQA10102-DQB10602 = assay: Competitive MHC class II binding assay, DQA10102-DQB10602; conditions: read-out: HLA-DQA10102-DQB10602; positive binding at cutoff 1000 nM
DRB1_0401 = DRB1_0401 (Homo sapiens, UniProt P01903+P01911, A100K/A169T/F76Y/I96L/K127E/L162R/M171V/N62H/P40V/Q125Y/R42H/S133A/S149N/S66Y/V115G/V209L/W38E); assay: Competitive MHC class II binding assay, DRB1_0401
DRB4_0101 = DRB4_0101 (Homo sapiens, UniProt P01903+P13762, G164S); assay: Competitive MHC class II binding assay, DRB4_0101

| Sequence | IC50 (DPA10202-DPB10501) | IC50 (DRB1_0101) | IC50 (DRB1_0802) | IC50 (DRB1_0901) | IC50 (DRB5_0101) | IC50 (DQA10501-DQB10301) | IC50 (DRB1_0701) | IC50 (DRB1_1302) | IC50 (DRB1_1501) | IC50 (DRB3_0202) | IC50 (DRB3_0101) | IC50 (DQA10102-DQB10602) | IC50 (DRB1_0401) | also measured |
| --- | --- | --- | --- | --- | --- | --- | --- | --- | --- | --- | --- | --- | --- | --- |
| VMGDNGVLASAIATHAKIRD [pep-125] | < 1 µM | < 1 µM | < 1 µM | < 1 µM | < 1 µM | < 1 µM |  |  |  |  |  |  |  | IC50 (DQA10301-DQB10302): < 1 µM |
| NYSQIYPPNVNKIREA [HDM101A, reference compound] |  | < 1 µM |  |  |  |  | < 1 µM | < 1 µM | < 1 µM | < 1 µM |  |  |  | IC50 (DPA10103-DPB10402): < 1 µM |
| IEYIQQNGVVEERSYPYVAR [pep-075] |  | < 1 µM |  |  |  |  |  | < 1 µM |  | < 1 µM | < 1 µM | < 1 µM |  | Solubility at pH 7 (visual inspection) [1]: Turbid; IC50 (DRB1_0301): < 1 µM; IC50 (DRB1_0405): < 1 µM; IC50 (DRB1_1201): < 1 µM; binding to HLA Class II allele DRB1_1302 (DRB1_1302; as shown in Table 16a): binds to at least the same alleles as peptide 041; binding to HLA Class II allele DRB3_0101 (DRB3_0101; as shown in Table 16a): binds to at least the same alleles as peptide 041; binding to HLA Class II allele DRB3_0202 (DRB3_0202; as shown in Table 16a): binds to at least the same alleles as peptide 041; IC50 (DQA10501-DQB10201): < 1 µM; binding to HLA Class II allele DQA10501-DQB10201 (DQA10501-DQB10201; as shown in Table 16a): binds to at least the same alleles as peptide 041; binding to HLA Class II allele DQA10401-DQB10402 (DQA10401-DQB10402; as shown in Table 16a): binds to at least the same alleles as peptide 041; IC50 (DQA10401-DQB10402; read-out: HLA-DQA10401-DQB10402, positive binding at cutoff 1000 nM): < 1 µM |
| VMGDDGVLASAIATHAKIRD [pep-099] | < 1 µM | < 1 µM | < 1 µM | < 1 µM | < 1 µM | < 1 µM |  | < 1 µM |  |  |  | < 1 µM | < 1 µM |  |
| VLASAIATHAKIRD [pep-012] | < 1 µM | < 1 µM |  | < 1 µM | < 1 µM | < 1 µM | < 1 µM |  |  |  | < 1 µM |  |  |  |
| GVLASAIATHAKIR [HDM26B, reference compound] | < 1 µM | < 1 µM | < 1 µM | < 1 µM | < 1 µM | < 1 µM | < 1 µM | < 1 µM | < 1 µM | < 1 µM |  |  | < 1 µM | IC50 (DRB4_0101): < 1 µM |
